Source: patent US4530838A, “Synthetic calcitonin-gene-related peptides for lowering blood pressure or gastric acid secretion in mammals” (The Salk Institute for Biological Studies, priority 1983, dated 1985)

How the values were obtained:
rats [1] = experiment: Mean arterial blood pressure (MAP) by direct arterial monitoring in unanesthetized rats; type: in vivo
Experimental: (§1) The synthetic CGRP was examined for its effect on mean arterial blood pressure(MAP) gastric acid secretion and plasma catecholamine levels. The effects of CGRP on MAP, gastric secretion and plasma catecholamine levels were determined in unanesthetized rats and Beagle dogs. MAP was measured via direct arterial monitoring and gastric acids were collected from chronic gastric-abdominal wall cannula. […] Mean arterial blood pressure in rats fell from 106 to 57±2 mm Hg within about 1 minute following an injection of 6.5 nmoles CGRP and then slowly returned to control values during a period of more than one hour. The iv administration of an injection equal to 650 pmoles of CGRP lowered MAP to 73±3 mm Hg in about one minute, returning to control value in about 1 hour. IV and ICV administration of CGRP (10 pmoles) to rats and dogs lowers pentagastrin-induced acid secretion by more than 70% for several hours.

[2] = Plasma catecholamine (norepinephrine) levels in unanesthetized animals; type: in vivo, rats and Beagle dogs; conditions: IV and ICV, 6.5 nmoles
Experimental: as §1

rats [3] = experiment: Pentagastrin-induced gastric acid secretion, chronic gastric-abdominal wall cannula, rats; type: in vivo; conditions: IV and ICV, 10 pmoles, for several hours
Experimental: as §1

Beagle dogs [4] = experiment: Pentagastrin-induced gastric acid secretion, chronic gastric-abdominal wall cannula, dogs; type: in vivo; conditions: IV and ICV, 10 pmoles, for several hours
Experimental: as §1

[5] = Blood pressure (MAP) lowering, general procedure of Example I, species not stated; type: in vivo; conditions: species and dose not stated
Experimental: as §1
The peptide [Lys^35 ]-CGRP having the formula: [drawing 7] is synthesized.

Beagle dogs [6] = experiment: Mean arterial blood pressure (MAP) by direct arterial monitoring in unanesthetized Beagle dogs; type: in vivo
Experimental: as §1

[7] = iv, degree and duration dose-related

Row | SMILES | Rapid decrease in MAP evoked, intercerebroventricular (icv) administration (rats [1]; icv) | Period of return of MAP to control values (rats [1]; injection of 6.5 nmoles) | Mean arterial blood pressure after injection (rats [1]; injection of 6.5 nmoles, fell from 106 within about 1 minute) [mm Hg] | Time of return of MAP to control value (rats [1]; iv injection of 650 pmoles) | Mean arterial blood pressure after injection (rats [1]; iv injection of 650 pmoles, in about one minute) [mm Hg] | Effect on MAP, intravenous (iv) administration (rats [1]; [7]) | Norepinephrine in plasma [2] | Lowering of pentagastrin-induced acid secretion (rats [3]) | Lowering of pentagastrin-induced acid secretion (Beagle dogs [4]) | Effect on blood pressure / MAP [5] | Rapid decrease in MAP evoked, intercerebroventricular (icv) administration (Beagle dogs [6]; icv) | Effect on MAP, intravenous (iv) administration (Beagle dogs [6]; [7])
1 | CC(C)C[C@H](NC(=O)CNC(=O)[C@H](C)NC(=O)[C@H](CC(C)C)NC(=O)[C@H](CCCNC(=N)N)NC(=O)[C@H](Cc1c[nH]cn1)NC(=O)[C@@H](NC(=O)[C@@H](NC(=O)[C@@H]1CSSC[C@H](NC(=O)[C@@H](N)CO)C(=O)N[C@@H](CC(N)=O)C(=O)N[C@@H]([C@@H](C)O)C(=O)N[C@@H](C)C(=O)N[C@@H]([C@@H](C)O)C(=O)N1)C(C)C)[C@@H](C)O)C(=O)N[C@@H](CC(C)C)C(=O)N[C@@H](CO)C(=O)N[C@@H](CCCNC(=N)N)C(=O)N[C@@H](CO)C(=O)NCC(=O)NCC(=O)N[C@H](C(=O)N[C@H](C(=O)N[C@@H](CCCCN)C(=O)N[C@@H](CC(=O)O)C(=O)N[C@@H](CC(N)=O)C(=O)N[C@@H](Cc1ccccc1)C(=O)N[C@H](C(=O)N1CCC[C@H]1C(=O)N[C@H](C(=O)N[C@@H](CC(N)=O)C(=O)N[C@H](C(=O)NCC(=O)N[C@@H](CO)C(=O)N[C@@H](CCC(=O)O)C(=O)N[C@@H](C)C(=O)N[C@@H](Cc1ccccc1)C(N)=O)C(C)C)[C@@H](C)O)C(C)C)C(C)C)C(C)C [CGRP] | not | more than one | 57±2 | about 1 hour | 73±3 | rapid decrease in MAP | significant elevation | more than 70% | more than 70% | substantially lower blood pressure for an extended time period | not | rapid decrease in MAP
2 | CC(C)C[C@H](NC(=O)CNC(=O)[C@H](C)NC(=O)[C@H](CC(C)C)NC(=O)[C@H](CCCNC(=N)N)NC(=O)[C@H](Cc1c[nH]cn1)NC(=O)[C@@H](NC(=O)[C@@H](NC(=O)[C@@H]1CSSC[C@H](NC(=O)[C@@H](N)CO)C(=O)N[C@@H](CC(N)=O)C(=O)N[C@@H]([C@@H](C)O)C(=O)N[C@@H](C)C(=O)N[C@@H]([C@@H](C)O)C(=O)N1)C(C)C)[C@@H](C)O)C(=O)N[C@@H](CC(C)C)C(=O)N[C@@H](CO)C(=O)N[C@@H](CCCNC(=N)N)C(=O)N[C@@H](CO)C(=O)NCC(=O)NCC(=O)N[C@H](C(=O)N[C@H](C(=O)N[C@@H](CCCCN)C(=O)N[C@@H](CC(=O)O)C(=O)N[C@@H](CC(N)=O)C(=O)N[C@@H](Cc1ccccc1)C(=O)N[C@H](C(=O)N1CCC[C@H]1C(=O)N[C@H](C(=O)N[C@@H](CC(N)=O)C(=O)N[C@H](C(=O)NCC(=O)N[C@@H](CO)C(=O)N[C@@H](CCCCN)C(=O)N[C@@H](C)C(=O)N[C@@H](Cc1ccccc1)C(N)=O)C(C)C)[C@@H](C)O)C(C)C)C(C)C)C(C)C [[Lys^35]-CGRP] | – | – | – | – | – | – | – | – | – | very significant lowering of MAP | – | –
